Source: patent US9029409B2, “Isoxazolines as therapeutic agents” (AbbVie Inc., priority 2011, dated 2015)

Biological target: T1, recombinant human MMP13 catalytic domain (CD) (Homo sapiens, UniProt P45452)
T1 construct: catalytic domain (CD) construct encompassing residues 20-274 (SWISS-PROT P45452); made in house
Test: MMP-13 catalytic domain FRET enzyme assay
Format: biochemical
Settings: recombinant human MMP-13 catalytic domain
Method: A recombinant human MMP13 catalytic domain (CD) construct encompassing residues 20-274 (SWISS-PROT P45452) was generated by synthetic gene methods and bacterial expression. MMP-13 activity assays were performed using the recombinant human MMP-13 CD at a 0.4 nM concentration and the fluorogenic substrate (QXL-520)-K-P-L-A˜Nva-Dap(5-FAM)-A-R-NH2 (Anaspec cat #60554-01, San Jose, Calif.) at a 0.25 μM concentration in assay buffer containing […], pH 7.5, 10 mM CaCl2, 150 mM NaCl, 0.05% Brij 35. The assay is based on the cleavage of this substrate by MMP-13, resulting in decrease of FRET between the donor-acceptor pair and subsequent fluorescence enhancement. The assays were carried out in 384-well plates (Greiner cat #781076, Germany) for 60 min at RT. After the incubation period, the reaction was quenched by the addition of 5 μL of 500 mM EDTA (100 mM final concentration) (Rankem, Cat #E0120, India) mixed well and the rate of substrate hydrolysis was determined by monitoring change in fluorescence at excitation and emission wavelengths of 485 nm and 535 nm respectively. Fluorescence was measured on a Victor V5 plate reader (Perkin Elmer, Turku, Finland). The test compounds used for assessing the potency of inhibition of MMP-13 activity were dissolved in DMSO (final DMSO concentration in the assay was 5%). Selected compounds were also screened against full length MMP13 (R&D Systems (Cat. No. 511-MM-010), Minneapolis, Minn.) at 2 nM concentration using the same fluorogenic substrate mentioned above. The enzyme was activated using 1 m Mp-aminophenylmercuric acetate—APMA (Cat #A-9563, Sigma, Germany).
Data analysis: The percent inhibition of the enzyme activity in presence of test compounds were calculated using the equation, percent (%) Inhibition=100−[(Fi/Fc)*100] where Fc is the fluorescence corresponding to initial enzyme activity and Fi is the fluorescence corresponding to the enzyme activity in presence of inhibitor. The IC50 values were calculated by fitting the dose-response data to a sigmoidal curve fitting equation using Graph Pad prism software (Version 5, La Jolla, Calif.).
MMP13 Catalytic Domain (CD) Potency of the Described Examples Determined Using Time Resolved Fluorescence Resonance Energy Transfer (FRET) Enzyme Assays: […]

| SMILES | IC50 [nM] |
| --- | --- |
| COc1ccc(CNC(=O)c2cc(C3=NOC(c4ccc(N5CCCCC5)cc4)C3)nc(C)n2)cc1 (stereo not drawn) | 100 to 1000 |
| COc1cc([C@@H](C)NC(=O)c2cc(C3=NOC(c4ccccc4)C3)nc(C)n2)ccc1F (stereo partly drawn) | > 1000 |
| COc1ccc(CNC(=O)c2cc(C3=NOC(c4ccccn4)C3)nc(C)n2)cc1 (stereo not drawn) | 100 to 1000 |
| Cc1nc(C(=O)NCc2ccc(F)cc2)cc(C2=NOC(C3CCN(C(=O)CO)CC3)C2)n1 (stereo not drawn) | 10 to 100 |
| CNC(=O)Cn1ccc(C2CC(c3cc(C(=O)NCc4ccc(F)c(OC)c4)nc(C)n3)=NO2)cc1=O (stereo not drawn) | 10 to 100 |
| COc1cc(CNC(=O)c2cc(C3=NO[C@@H]([C@H]4CO[C@H](CO)CO4)C3)nc(C)n2)ccc1F [drawing 837] | 100 to 1000 |
| COc1cc(CNC(=O)c2cc(C3=NOC(c4c[nH]cn4)C3)nc(C)n2)ccc1F (stereo not drawn) | > 1000 |
| COc1cc(CNC(=O)c2cc(C3=NOC(c4cnccn4)C3)nc(C)n2)ccc1F (stereo not drawn) | 10 to 100 |
| Cc1nc(C(=O)NCc2ccc(F)cc2)cc(C2=NO[C@H]([C@H]3CO[C@H](CO)CO3)C2)n1 | 10 to 100 |
| CC(=O)N[C@H]1CC[C@H](C2CC(c3cc(C(=O)NCc4ccn(C)c(=O)c4)nc(C)n3)=NO2)CC1 (stereo partly drawn) | > 1000 |
| Cc1nc(C(=O)NCc2ccc(F)c(Cl)c2)cc(C2=NO[C@@H]([C@H]3CO[C@H](CO)CO3)C2)n1 [drawing 902] | 100 to 1000 |
| COc1cc(CNC(=O)c2cc(C3=NOC(C(=O)N4CCCC4)C3)nc(C)n2)ccc1F (stereo not drawn) | > 1000 |
| COc1cc(CNC(=O)c2cc(C3=NOC(c4cc(C(N)=O)nn4C)C3)nc(C)n2)ccc1F (stereo not drawn) | 100 to 1000 |
| COc1cccc(CNC(=O)c2cc(C3=NOC(C)(c4ccc(Cl)cc4)C3)ccn2)c1 (stereo not drawn) | > 1000 |
| COc1cc(CNC(=O)c2cc(C3=NO[C@H]([C@H]4CO[C@H](CNC(=O)N(C)C)CO4)C3)nc(C)n2)ccc1F | 10 to 100 |
| COc1cc(CNC(=O)c2cc(C3=NOC(c4ccc(N(C)C)nn4)C3)nc(C)n2)ccc1F (stereo not drawn) | > 1000 |
| COc1cccc(CNC(=O)c2cc(C3=NOC(C4CCN(C(C)=O)CC4)C3)nc(C)n2)c1 (stereo not drawn) | 10 to 100 |
| Cc1cccc(CNC(=O)c2cc(C3=NO[C@@H]([C@H]4CO[C@H](CO)CO4)C3)nc(C)n2)c1 | > 1000 |
| CNC(=O)Cn1cc([C@H]2CC(c3cc(C(=O)NCc4ccc(F)c(OC)c4)nc(C)n3)=NO2)ccc1=O | 10 to 100 |
| COc1cc(CNC(=O)c2cc(C3=NOC(C(=O)N4CCOCC4)C3)nc(C)n2)ccc1F (stereo not drawn) | > 1000 |

| SMILES | IC50 [nM] |
| --- | --- |
| Cc1nc(C(=O)NCc2ccc(F)c(C)c2)cc(C2=NO[C@H]([C@H]3CO[C@H](CO)CO3)C2)n1 | 100 to 1000 |
| COc1cc(CNC(=O)c2cc(C3=NOC(c4ccn(CC(=O)N(C)C)c(=O)c4)C3)nc(C)n2)ccc1F (stereo not drawn) | 10 to 100 |
| COc1cc(CNC(=O)c2cc(C3=NOC(c4ccnc(C(N)=O)c4)C3)nc(C)n2)ccc1F (stereo not drawn) | 10 to 100 |
| COc1cc(CNC(=O)c2cc(C3=NOC(c4ccc(CO)nc4)C3)nc(C)n2)ccc1F (stereo not drawn) | 10 to 100 |
| COc1cccc(CNC(=O)c2cc(C3=NO[C@H]([C@@H]4CO[C@@H](CO)CO4)C3)nc(C)n2)c1 | 10 to 100 |
| COc1cc(CNC(=O)c2cc(C3=NO[C@@H]([C@@H]4CO[C@@H](CO)CO4)C3)nc(C)n2)ccc1F | 100 to 1000 |
| COc1cc(CNC(=O)c2cc(C3=NO[C@@H](C4CCN(C(=O)CO)CC4)C3)nc(C)n2)ccc1F | 10 to 100 |
| Cc1nc(C(=O)NCc2ccc3c(c2)OCCO3)cc(C2=NO[C@@H]([C@H]3CO[C@H](CO)CO3)C2)n1 | > 1000 |
| COc1cc(CNC(=O)c2cc(C3=NOC(C4CCN(C(=O)C5CC5)CC4)C3)nc(C)n2)ccc1F (stereo not drawn) [drawing 1063] | 10 to 100 |
| COc1cccc(C2CC(c3cc(C(=O)NCc4ccc(F)c(OC)c4)nc(C)n3)=NO2)n1 (stereo not drawn) | 10 to 100 |
| Cc1nc(C(=O)NCc2ccc(F)c(Cl)c2)cc(C2=NO[C@@H]([C@H]3CO[C@H](CO)CO3)C2)n1 [drawing 1070] | > 1000 |
| Cc1nc(C(=O)NCc2ccc3c(c2)NC(=O)CO3)cc(C2=NO[C@@H]([C@H]3CO[C@H](CO)CO3)C2)n1 | 10 to 100 |
| COc1cc(CNC(=O)c2cc(C3=NOC(c4cnn(CCO)c4)C3)nc(C)n2)ccc1F (stereo not drawn) | > 1000 |
| COc1cc(CNC(=O)c2cc(C3=NNC(c4cccnc4)C3)nc(C)n2)ccc1F (stereo not drawn) | 10 to 100 |
| COc1cc(CNC(=O)c2cc(C3=NOC(c4ncccn4)C3)nc(C)n2)ccc1F (stereo not drawn) | 10 to 100 |
| COc1cc(CNC(=O)c2cc(C3=NOC(C4CCN(C(=O)C(C)C)CC4)C3)nc(C)n2)ccc1F (stereo not drawn) | 10 to 100 |
| Cc1nc(C(=O)NCc2ccc(F)c(F)c2)cc(C2=NOC(C3CCN(S(C)(=O)=O)CC3)C2)n1 (stereo not drawn) | 10 to 100 |
| CC(=O)N1CCC(C2CC(c3cc(C(=O)NCc4ccc(F)cc4)nc(C)n3)=NO2)CC1 (stereo not drawn) | 10 to 100 |
| COc1ccc(CNC(=O)c2cc(C3=NOC(C)(c4ccccc4)C3)ccn2)cc1 (stereo not drawn) | > 1000 |

More lines, now with the values ahead:

| IC50 [nM] | SMILES |
| --- | --- |
| < 10 | COc1cc(CNC(=O)c2cc(C3=NOC(C4CCN(S(=O)(=O)c5c(C)noc5C)CC4)C3)nc(C)n2)ccc1F (stereo not drawn) |
| 10 to 100 | CNC(=O)NCC(=O)N1CCC(C2CC(c3cc(C(=O)NCc4ccc(F)c(OC)c4)nc(C)n3)=NO2)CC1 (stereo not drawn) |
| 10 to 100 | COc1cccc(CNC(=O)c2cc(C3=NOC(c4ccccn4)C3)nc(C)n2)c1 (stereo not drawn) |
| < 10 | CCS(=O)(=O)N1CCC(C2CC(c3cc(C(=O)NCc4ccc(F)c(OC)c4)nc(C)n3)=NO2)CC1 (stereo not drawn) |
| 10 to 100 | Cc1nc(C(=O)NCc2ccc(F)cc2)cc(C2=NOC(c3ccccn3)C2)n1 (stereo not drawn) |
| 10 to 100 | COc1cc(CNC(=O)c2cc(C3=NO[C@H]([C@H]4CO[C@H](CNC(=O)C(C)(C)O)CO4)C3)nc(C)n2)ccc1F |
| 10 to 100 | COc1ccc(CNC(=O)c2cc(C3=NOC(C4CCCCC4)C3)nc(C)n2)cc1 (stereo not drawn) |
| 10 to 100 | Cc1nc(C(=O)NCc2ccc(F)c(F)c2)cc(C2=NOC(c3ccc(=O)n(C)c3)C2)n1 (stereo not drawn) |
| 10 to 100 | Cc1nc(C(=O)NCc2ccc(F)cc2)cc(C2=NOC(c3ccc(=O)n(C)c3)C2)n1 (stereo not drawn) |
| 10 to 100 | COc1cc(CNC(=O)c2cc(C3=NOC(c4ccc(N5CCC(CO)CC5)cc4)C3)nc(C)n2)ccc1F (stereo not drawn) |
| < 10 | Cc1nc(C(=O)NCc2ccc3c(c2)NC(=O)CO3)cc(C2=NOC([C@H]3CC[C@H](NC(=O)[C@H](C)O)CC3)C2)n1 (stereo partly drawn) |
| < 10 | CNC(=O)Cn1cc(C2CC(c3cc(C(=O)NCc4ccc(F)c(OC)c4)nc(C)n3)=NO2)ccc1=O (stereo not drawn) |
| < 10 | COc1cc(CNC(=O)c2cc(C3=NOC(C4CCN(C(=O)N(C)C)CC4)C3)nc(C)n2)ccc1F (stereo not drawn) [drawing 1061] |
| < 10 | COc1cc(CNC(=O)c2cc(C3=NOC(c4ccc(CO)cn4)C3)nc(C)n2)ccc1F (stereo not drawn) |
| < 10 | COc1cc(CNC(=O)c2cc(C3=NOC(c4ccncc4)C3)nc(C)n2)ccc1F (stereo not drawn) |
| < 10 | CC(=O)N[C@H]1CC[C@H]([C@H]2CC(c3cc(C(=O)NCc4ccc5c(c4)NC(=O)CO5)nc(C)n3)=NO2)CC1 |
| < 10 | COc1cc(CNC(=O)c2cc(C3=NOC([C@H]4CC[C@H](NC(=O)N(C)CC(O)CO)CC4)C3)nc(C)n2)ccc1F (stereo partly drawn) |
| < 10 | COc1cc(CNC(=O)c2cc(C3=NOC(C4CCOCC4)C3)nc(C)n2)ccc1F (stereo not drawn) |
| < 10 | COc1cc(CNC(=O)c2cc(C3=NOC([C@H]4CC[C@H](NC(=O)NCCO)CC4)C3)nc(C)n2)ccc1F (stereo partly drawn) |
| < 10 | CNC(=O)Cn1cc(C2CC(c3cc(C(=O)NCc4ccc(F)c(OC)c4)nc(C)n3)=NO2)cc(Cl)c1=O (stereo not drawn) |
| < 10 | CNC(=O)Cn1cc([C@@H]2CC(c3cc(C(=O)NCc4ccc(F)c(OC)c4)nc(C)n3)=NO2)ccc1=O |
| < 10 | COc1cccc(CNC(=O)c2cc(C3=NOC(C4CCN(S(C)(=O)=O)CC4)C3)nc(C)n2)c1 (stereo not drawn) |
| < 10 | COc1cc(CNC(=O)c2cc(C3=NOC([C@H]4CC[C@H](NC(=O)N(C)C)CC4)C3)nc(C)n2)ccc1F (stereo partly drawn) |
| < 10 | COc1cc(CNC(=O)c2cc(C3=NOC([C@H]4CC[C@H](C(N)=O)CC4)C3)nc(C)n2)ccc1F (stereo partly drawn) |
| < 10 | COc1cc(CNC(=O)c2cc(C3=NOC(c4cccc(C(N)=O)c4)C3)nc(C)n2)ccc1F (stereo not drawn) |
| < 10 | COc1cc(CNC(=O)c2cc(C3=NOC(C4CCN(S(=O)(=O)c5nccn5C)CC4)C3)nc(C)n2)ccc1F (stereo not drawn) |
| < 10 | COc1cc(CNC(=O)c2cc(C3=NO[C@H]([C@H]4CO[C@H](CNC(C)=O)CO4)C3)nc(C)n2)ccc1F |
| < 10 | COc1cc(CNC(=O)c2cc(C3=NOC(c4ccc(-c5nc(C)no5)nn4)C3)nc(C)n2)ccc1F (stereo not drawn) |
| < 10 | COc1cc(CNC(=O)c2cc(C3=NOC(C4CCN(C(=O)N(C)CCO)CC4)C3)nc(C)n2)ccc1F (stereo not drawn) |
| < 10 | Cc1nc(C(=O)NCc2ccc(F)c(F)c2)cc(C2=NO[C@H](c3ccc(=O)n(C)c3)C2)n1 |
